# According to ChEMBL document CHEMBL1201861, “Genomics of Drug Sensitity in Cancer screening data, Wellcome Trust Sanger Institute”:
# Experiments:
# Experiment in all cases: cells
# Type in all cases: functional, cell-based, Homo sapiens
# [1] = system: SF-295;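 note: growth inhibition of SF-295 cells, read out with a cell viability assay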
# Description: SANGER: Inhibition of human SF295 cell growth in a cell viability assay.
# [2] = system: MDA-MB-361
# [3] = system: CHP-212
# Description: SANGER: Inhibition of human CHP-212 cell growth in a cell viability assay.
# [4] = system: PC-14;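 note: cell viability assay measuring inhibition of PC-14 cell growth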
# Description: SANGER: Inhibition of human PC-14 cell growth in a cell viability assay.
# [5] = system: KU-19-19
# Description: SANGER: Inhibition of human KU-19-19 cell growth in a cell viability assay.
# [6] = system: EFO-21;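 note: growth inhibition of EFO-21 cells measured with a viability assay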
# Description: SANGER: Inhibition of human EFO-21 cell growth in a cell viability assay.
# [7] = system: HuO9;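 note: growth inhibition of HuO9 cells, read out with a cell viability assay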
# Description: SANGER: Inhibition of human HuO9 cell growth in a cell viability assay.
# [8] = system: SBC-5;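 note: cell viability assay read-out, IC50 is the concentration that inhibits growth of the cells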
# Description: SANGER: Inhibition of human SBC-5 cell growth in a cell viability assay.
# [9] = system: MEL-HO
# Description: SANGER: Inhibition of human MEL-HO cell growth in a cell viability assay.
# [10] = system: MDA-MB-157
# Description: SANGER: Inhibition of human MDA-MB-157 cell growth in a cell viability assay.
# [11] = system: CAL-54;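 note: growth inhibition of CAL-54 cells, read out by a viability measurement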
# Description: SANGER: Inhibition of human CAL-54 cell growth in a cell viability assay.
# [12] = system: SW837;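 note: growth inhibition of SW837 cells, determined with a cell viability assay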
# Description: SANGER: Inhibition of human SW837 cell growth in a cell viability assay.
# [13] = system: MKN-28;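 note: cell viability assay read-out, IC50 reflects suppression of growth of human MKN-28 cells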
# Description: SANGER: Inhibition of human MKN28 cell growth in a cell viability assay.
# [14] = system: KYSE-520 cell line;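 note: growth inhibition of human KYSE-520 cells, read out with a viability assay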
# Description: SANGER: Inhibition of human KYSE-520 cell growth in a cell viability assay.
# [15] = system: NCI-H2405;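 note: growth inhibition of the human cell line, read out with a cell viability assay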
# Description: SANGER: Inhibition of human NCI-H2405 cell growth in a cell viability assay.
# [16] = system: HT-3;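 note: growth inhibition measured with a cell viability readout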
# Description: SANGER: Inhibition of human HT-3 cell growth in a cell viability assay.
# [17] = system: TYK-nu;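 note: growth inhibition of human TYK-nu cells, read out by a cell viability assay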
# Description: SANGER: Inhibition of human TYK-nu cell growth in a cell viability assay.
# [18] = system: GAMG;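 note: cell growth inhibition measured by a viability assay in the GAMG human cell line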
# Description: SANGER: Inhibition of human GAMG cell growth in a cell viability assay.
# [19] = system: CAL-120;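 note: cell growth inhibition, read out as cell viability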
# Description: SANGER: Inhibition of human CAL-120 cell growth in a cell viability assay.
# [20] = system: A-427;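 note: growth inhibition of human A-427 cells, read out by a cell viability assay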
# Description: SANGER: Inhibition of human A427 cell growth in a cell viability assay.
# [21] = system: IGROV-1;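 note: reduction of IGROV-1 cell growth, read out with a viability assay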
# Description: SANGER: Inhibition of human IGROV-1 cell growth in a cell viability assay.
# [22] = system: SiHa;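 note: Viability-based readout of growth inhibition in SiHa cells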
# Description: SANGER: Inhibition of human SiHa cell growth in a cell viability assay.
# [23] = system: AU565;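 note: cell viability assay measuring growth inhibition of human AU565 cells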
# Description: SANGER: Inhibition of human AU565 cell growth in a cell viability assay.
# [24] = system: MOLT-13;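 note: IC50 for suppression of MOLT-13 cell growth, read out with a cell viability assay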
# Description: SANGER: Inhibition of human MOLT-13 cell growth in a cell viability assay.
# [25] = system: FaDu;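 note: cell viability readout of growth inhibition in FaDu cells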
# Description: SANGER: Inhibition of human FADU cell growth in a cell viability assay.
# [26] = system: T98G;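 note: growth inhibition of T98G cells, read out by a cell viability assay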
# Description: SANGER: Inhibition of human T98G cell growth in a cell viability assay.
# [27] = system: NUGC-3;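 note: growth inhibition of human NUGC-3 cells, read out with a cell viability assay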
# Description: SANGER: Inhibition of human NUGC-3 cell growth in a cell viability assay.
# [28] = system: MeWo;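 note: growth inhibition of MeWo cells, determined by a cell viability readout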
# Description: SANGER: Inhibition of human Mewo cell growth in a cell viability assay.
# [29] = system: SAOS-2;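 note: growth inhibition of human Saos-2 cells determined by a cell viability assay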
# Description: SANGER: Inhibition of human Saos-2 cell growth in a cell viability assay.
# [30] = system: CWR22R;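 note: growth inhibition of 22Rv1 cells, read out with a cell viability assay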
# Description: SANGER: Inhibition of human 22RV1 cell growth in a cell viability assay.
# [31] = system: BHY;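 note: cell growth inhibition read out by a viability assay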
# Description: SANGER: Inhibition of human BHY cell growth in a cell viability assay.
# [32] = system: LoVo;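 note: growth inhibition of human LoVo cells, read out with a cell viability assay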
# Description: SANGER: Inhibition of human LoVo cell growth in a cell viability assay.
# [33] = system: DBTRG-05MG;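 note: cell viability assay measuring growth inhibition of human DBTRG-05MG cells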
# Description: SANGER: Inhibition of human DBTRG-05MG cell growth in a cell viability assay.
# [34] = system: CAPAN-1;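 note: growth suppression of CAPAN-1 cells, read out by a cell viability assay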
# Description: SANGER: Inhibition of human CAPAN-1 cell growth in a cell viability assay.
# [35] = system: BT-549
# Description: SANGER: Inhibition of human BT-549 cell growth in a cell viability assay.
# [36] = system: G-361
compound,measurement,setting,value
CCN(CC)CCCCNc1ncc2cc(-c3cc(OC)cc(OC)c3)c(NC(=O)NC(C)(C)C)nc2n1 [PD-173074],IC50,"[1]; Homo sapiens, SF-295",> 2000 nM
same,IC50,"[2]; Homo sapiens, MDA-MB-361",> 2000 nM
same,IC50,"[3]; Homo sapiens, CHP-212",> 2000 nM
same,IC50,"[4]; Homo sapiens, PC-14",> 2000 nM
same,IC50,"[5]; Homo sapiens, KU-19-19",> 2000 nM
same,IC50,"[6]; Homo sapiens, EFO-21",> 2000 nM
same,IC50,"[7]; Homo sapiens, HuO9",> 2000 nM
same,IC50,"[8]; Homo sapiens, SBC-5",> 2000 nM
same,IC50,"[9]; Homo sapiens, MEL-HO",> 2000 nM
same,IC50,"[10]; Homo sapiens, MDA-MB-157",> 2000 nM
same,IC50,"[11]; Homo sapiens, CAL-54",> 2000 nM
same,IC50,"[12]; Homo sapiens, SW837",> 2000 nM
same,IC50,"[13]; Homo sapiens, MKN-28",> 2000 nM
same,IC50,"[14]; Homo sapiens, KYSE-520",> 2000 nM
same,IC50,"[15]; Homo sapiens, NCI-H2405",> 2000 nM
same,IC50,"[16]; Homo sapiens, HT-3",> 2000 nM
same,IC50,"[17]; Homo sapiens, TYK-nu",> 2000 nM
same,IC50,"[18]; Homo sapiens, GAMG",> 2000 nM
same,IC50,"[19]; Homo sapiens, CAL-120",> 2000 nM
same,IC50,"[20]; Homo sapiens, A-427",> 2000 nM
same,IC50,"[21]; Homo sapiens, IGROV-1",> 2000 nM
same,IC50,"[22]; Homo sapiens, SiHa",> 2000 nM
same,IC50,"[23]; Homo sapiens, AU565",> 2000 nM
same,IC50,"[24]; Homo sapiens, MOLT-13",> 2000 nM
same,IC50,"[25]; Homo sapiens, FaDu",> 2000 nM
same,IC50,"[26]; Homo sapiens, T98G",> 2000 nM
same,IC50,"[27]; Homo sapiens, NUGC-3",> 2000 nM
same,IC50,"[28]; Homo sapiens, MeWo",> 2000 nM
same,IC50,"[29]; Homo sapiens, SAOS-2",> 2000 nM
same,IC50,"[30]; Homo sapiens, 22Rv1",> 2000 nM
same,IC50,"[31]; Homo sapiens, BHY",> 2000 nM
same,IC50,"[32]; Homo sapiens, LoVo",> 2000 nM
same,IC50,"[33]; Homo sapiens, DBTRG-05MG",> 2000 nM
same,IC50,"[34]; Homo sapiens, CAPAN-1",> 2000 nM
same,IC50,"[35]; Homo sapiens, BT-549",> 2000 nM
CO[C@H]1C[C@@H]2CC[C@@H](C)[C@@](O)(O2)C(=O)C(=O)N2CCCC[C@H]2C(=O)O[C@H]([C@H](C)C[C@@H]2CC[C@@H](OC(=O)C(C)(CO)CO)[C@H](OC)C2)CC(=O)[C@H](C)/C=C(\C)[C@@H](O)[C@@H](OC)C(=O)[C@H](C)C[C@H](C)/C=C/C=C/C=C/1C [TEMSIROLIMUS],IC50,"[1]; Homo sapiens, SF-295",60.5 nM
same,IC50,"[2]; Homo sapiens, MDA-MB-361",> 200 nM
same,IC50,"[3]; Homo sapiens, CHP-212",52.4 nM
same,IC50,"[4]; Homo sapiens, PC-14",> 200 nM
same,IC50,"[5]; Homo sapiens, KU-19-19",> 200 nM
same,IC50,"[6]; Homo sapiens, EFO-21",> 200 nM
same,IC50,"[7]; Homo sapiens, HuO9",177 nM
same,IC50,"[8]; Homo sapiens, SBC-5",103 nM
same,IC50,"[9]; Homo sapiens, MEL-HO",33.6 nM
same,IC50,"[10]; Homo sapiens, MDA-MB-157",> 200 nM
same,IC50,"[11]; Homo sapiens, CAL-54",118 nM
same,IC50,"[36]; Homo sapiens, G-361",146 nM
same,IC50,"[12]; Homo sapiens, SW837",> 200 nM
same,IC50,"[13]; Homo sapiens, MKN-28",> 200 nM
same,IC50,"[14]; Homo sapiens, KYSE-520",139 nM
same,IC50,"[15]; Homo sapiens, NCI-H2405",> 200 nM
same,IC50,"[16]; Homo sapiens, HT-3",> 200 nM
same,IC50,"[17]; Homo sapiens, TYK-nu",0.778 nM
same,IC50,"[18]; Homo sapiens, GAMG",3.82 nM
same,IC50,"[19]; Homo sapiens, CAL-120",> 200 nM
same,IC50,"[20]; Homo sapiens, A-427",183 nM
same,IC50,"[21]; Homo sapiens, IGROV-1",38.8 nM
same,IC50,"[22]; Homo sapiens, SiHa",> 200 nM
same,IC50,"[23]; Homo sapiens, AU565",> 200 nM
same,IC50,"[24]; Homo sapiens, MOLT-13",> 200 nM
same,IC50,"[25]; Homo sapiens, FaDu",> 200 nM
same,IC50,"[26]; Homo sapiens, T98G",26.2 nM
same,IC50,"[27]; Homo sapiens, NUGC-3",23.5 nM
same,IC50,"[28]; Homo sapiens, MeWo",49.4 nM
same,IC50,"[29]; Homo sapiens, SAOS-2",> 200 nM
same,IC50,"[30]; Homo sapiens, 22Rv1",> 200 nM
same,IC50,"[31]; Homo sapiens, BHY",> 200 nM
same,IC50,"[32]; Homo sapiens, LoVo",> 200 nM
same,IC50,"[33]; Homo sapiens, DBTRG-05MG",> 200 nM
same,IC50,"[34]; Homo sapiens, CAPAN-1",> 200 nM
same,IC50,"[35]; Homo sapiens, BT-549",> 200 nM
CISPLATIN,IC50,[1]; sf-295,9340 nM
same,IC50,[2]; mda-mb-361,18500 nM
same,IC50,[3]; chp-212,25500 nM
same,IC50,[4]; pc-14,5720 nM
same,IC50,[5]; ku-19-19,10100 nM
same,IC50,[6]; efo-21,33700 nM
same,IC50,[7]; huo9,38700 nM
same,IC50,[8]; sbc-5,70100 nM
same,IC50,[9]; mel-ho,1070 nM
same,IC50,[10]; mda-mb-157,290000 nM
same,IC50,[11]; cal-54,12200 nM
same,IC50,[36]; g-361,672000 nM
same,IC50,[12]; sw837,190000 nM
same,IC50,[13]; mkn-28,31400 nM
same,IC50,[14]; kyse-520,21800 nM
same,IC50,[15]; nci-h2405,22700 nM
same,IC50,[16]; ht-3,5040 nM
same,IC50,[17]; tyk-nu,15800 nM
same,IC50,[18]; gamg,289000 nM
same,IC50,[19]; cal-120,264000 nM
same,IC50,[20]; a-427,350000 nM
same,IC50,[21]; igrov-1,343 nM
same,IC50,[22]; siha,17000 nM
same,IC50,[23]; au565,52500 nM
same,IC50,[24]; molt-13,381000 nM
same,IC50,[25]; fadu,8920 nM
same,IC50,[26]; t98g,141000 nM
same,IC50,[27]; nugc-3,2140 nM
same,IC50,[28]; mewo,16700 nM
same,IC50,[29]; saos-2,36300 nM
same,IC50,[30]; cwr22r,25300 nM
same,IC50,[31]; bhy,49300 nM
same,IC50,[32]; lovo,58200 nM
same,IC50,[33]; dbtrg-05mg,15900 nM
same,IC50,[34]; capan-1,24300 nM
same,IC50,[35]; bt-549,14600 nM
